16 compounds from patent US12552757B2, “NRF2-activating compound” (SENJU PHARMACEUTICAL CO., LTD., priority 2019, dated 2026) can be followed below.

The nature of this data set: Measurement of metabolic stability in human liver microsomes. The class given is in vitro ADME. The conditions noted are these: residual ratio of test compound after 30 minutes at 37° C. with human liver microsome, LC/MS/MS. As to the method:
1 mmol/L DMSO solutions of the compounds produced in the Examples were prepared. Each of the 1 mmol/L DMSO solutions was diluted with acetonitrile to 10 μmol/L, and then diluted with a 6.5 mmol/L Q-NADPH solution to 200 nmol/L. 50 μL of each solution was added to the reaction group and the non-reaction group. 50 μL of a 0.2 mg protein/mL human liver microsome (Mixed Gender, Pool of 50 livers; XenoTech, LLC) solution was added to the reaction group, followed by incubation at 37° C. for 30 minutes with shaking. After 400 μL of methanol was added to the non-reaction group, 50 μL of a 0.2 mg protein/mL human liver microsome solution was added to adjust the formulation. After incubation in the reaction group, 400 μL of methanol was added to stop the reaction. The samples of the reaction group and non-reaction group were allowed to stand at −20° C. for about 30 minutes, followed by centrifugation at 4° C. at 3000 rpm for about 10 minutes. The supernatant was analyzed using LC/MS/MS, and the residual ratio of the test compound was calculated from the peak area value of the test compound using the following formula. The measurement was carried out using the following devices: HPLC system: LC-20A-Series High Performance Liquid Chromatograph (Shimadzu Corporation) and mass spectrometer: API 4000 (AB Sciex Pte. Ltd.), or using equivalent devices. Residual ratio (%)=(peak area value of test compound in reaction group/peak area value of test compound in non-reaction group)×100 Results
As to `CC[C@@H]1CN(Cc2cc(C(CC(=O)O)c3sc(C(C)=O)cc3C)ccc2C)S(=O)(=O)c2ccccc2O1` (stereo partly drawn) [Compound 14, 3-(5-acetyl-3-methylthiophen-2-yl)-3-(3-{[(R)-4-ethyl-1,1-dioxide-3,4-dihydro-2H-benzo[b][1,4,5]oxathiazepin-2-yl]methyl}-4-methylphenyl)propanoic acid], the “Metabolic stability*” value is recorded as 25%.

With `CC[C@@H]1CN(Cc2cc(C(c3cc(F)c(C(C)=O)s3)C(C)C(=O)O)ccc2C)S(=O)(=O)c2cnccc2O1` (stereo partly drawn) [Compound 52, 3-(5-acetyl-4-fluorothiophen-2-yl)-3-(3-{[(R)-4-ethyl-1,1-dioxide-3,4-dihydro-2H-pyrido[4,3-b][1,4,5]oxathiazepin-2-yl]methyl}-4-methylphenyl)-2-methylpropanoic acid], the “Metabolic stability*” value is 53%.

Turning to `CC[C@@H]1CN(Cc2cc(C(c3ccc(C(C)=O)s3)C(C)(C)C(=O)O)ccc2C)S(=O)(=O)c2c(F)cccc2O1` (stereo partly drawn) [Compound 9, 3-(5-acetylthiophen-2-yl)-3-(3-{[(R)-4-ethyl-9-fluoro-1,1-dioxide-3,4-dihydro-2H-benzo[b][1,4,5]oxathiazepin-2-yl]methyl}-4-methylphenyl)-2,2-dimethylpropanoic acid], the “Metabolic stability*” value is reported as 38%.

Regarding `CC[C@@H]1CN(Cc2cc(C(CC(=O)O)c3cc(F)c(C(C)=O)s3)ccc2C)S(=O)(=O)c2ccccc2O1` (stereo partly drawn) [Compound 8, 3-(5-acetyl-4-fluorothiophen-2-yl)-3-(3-{[(R)-4-ethyl-1,1-dioxide-3,4-dihydro-2H-benzo[b][1,4,5]oxathiazepin-2-yl]methyl}-4-methylphenyl)propanoic acid], the “Metabolic stability*” value amounted to 36%.

Regarding `CC[C@@H]1CN(Cc2cc(C(CC(=O)O)c3ccc(C(=O)NC)s3)ccc2C)S(=O)(=O)c2ccccc2O1` (stereo partly drawn) [Compound 21, 3-(3-{[(R)-4-ethyl-1,1-dioxide-3,4-dihydro-2H-benzo[b][1,4,5]oxathiazepin-2-yl]methyl}-4-methylphenyl)-3-[5-(methylcarbamoyl)thiophen-2-yl]propanoic acid], the “Metabolic stability*” value is 74%.

`CC[C@@H]1CN(Cc2cc(C(CC(=O)O)c3cc(C)c(C(C)=O)s3)ccc2C)S(=O)(=O)c2ccccc2O1` (stereo partly drawn) [Compound 7, 3-(5-acetyl-4-methylthiophen-2-yl)-3-(3-{[(R)-4-ethyl-1,1-dioxide-3,4-dihydro-2H-benzo[b][1,4,5]oxathiazepin-2-yl]methyl}-4-methylphenyl)propanoic acid]: the “Metabolic stability*” value stood at 30%.

`CC[C@@H]1CN(Cc2cc(C(c3ccc(C(C)=O)s3)C(C)(C)C(=O)O)ccc2C)S(=O)(=O)c2ccccc2O1` (stereo partly drawn) [Compound 6, 3-(5-acetylthiophen-2-yl)-3-(3-{[(R)-4-ethyl-1,1-dioxide-3,4-dihydro-2H-benzo[b][1,4,5]oxathiazepin-2-yl]methyl}-4-methylphenyl)-2,2-dimethylpropanoic acid]: the “Metabolic stability*” value turned out to be 32%.

On to `CC[C@@H]1CN(Cc2cc(C(CC(=O)O)c3ccc(C(C)=O)s3)ccc2C)S(=O)(=O)c2ccccc2O1` (stereo partly drawn) [Compound 5, 3-(5-acetylthiophen-2-yl)-3-(3-{[(R)-4-ethyl-1,1-dioxide-3,4-dihydro-2H-benzo[b][1,4,5]oxathiazepin-2-yl]methyl}-4-methylphenyl)propanoic acid], for which the “Metabolic stability*” value stood at 53%.

Consider `CC[C@@H]1CN(Cc2cc(C(CC(=O)O)c3ccc(C#N)s3)ccc2C)S(=O)(=O)c2ccccc2O1` (stereo partly drawn) [Compound 19, 3-(5-cyanothiophen-2-yl)-3-(3-{[(R)-4-ethyl-1,1-dioxide-3,4-dihydro-2H-benzo[b][1,4,5]oxathiazepin-2-yl]methyl}-4-methylphenyl)propanoic acid], for which the “Metabolic stability*” value was 23%.

Turning to `CC[C@@H]1CN(Cc2cc(C(CC(=O)O)c3ccc(C(N)=O)s3)ccc2C)S(=O)(=O)c2ccccc2O1` (stereo partly drawn) [Compound 23, 3-(5-carbamoylthiophen-2-yl)-3-(3-{[(R)-4-ethyl-1,1-dioxide-3,4-dihydro-2H-benzo[b][1,4,5]oxathiazepin-2-yl]methyl}-4-methylphenyl)propanoic acid], the “Metabolic stability*” value came out at 75%.

With `CC[C@@H]1CN(Cc2cc(C(CC(=O)O)c3csc(C(=O)NC)c3)ccc2C)S(=O)(=O)c2ccccc2O1` (stereo partly drawn) [Compound 22, 3-(3-{[(R)-4-ethyl-1,1-dioxide-3,4-dihydro-2H-benzo[b][1,4,5]oxathiazepin-2-yl]methyl}-4-methylphenyl)-3-[5-(methylcarbamoyl)thiophen-3-yl]propanoic acid], the “Metabolic stability*” value is reported as 77%.

As to `CC[C@@H]1CN(Cc2cc(C(CC(=O)O)c3csc(C(C)=O)c3)ccc2C)S(=O)(=O)c2ccccc2O1` (stereo partly drawn) [Compound 15, 3-(5-acetylthiophen-3-yl)-3-(3-{[(R)-4-ethyl-1,1-dioxide-3,4-dihydro-2H-benzo[b][1,4,5]oxathiazepin-2-yl]methyl}-4-methylphenyl)propanoic acid], the “Metabolic stability*” value was found to be 47%.

With `CC(=O)c1ccc(C(c2ccc(C)c(CN3C[C@@H](C)Oc4ccccc4S3(=O)=O)c2)C(C)(C)C(=O)O)s1` (stereo partly drawn) [Compound 12, 3-(5-acetylthiophen-2-yl)-2,2-dimethyl-3-(4-methyl-3-{[(R)-4-methyl-1,1-dioxide-3,4-dihydro-2H-benzo[b][1,4,5]oxathiazepin-2-yl]methyl}phenyl)propanoic acid], the “Metabolic stability*” value was 56%.

With `CC[C@@H]1CN(Cc2cc(C(CC(=O)O)c3cc(C(C)=O)cs3)ccc2C)S(=O)(=O)c2ccccc2O1` (stereo partly drawn) [Compound 10, 3-(4-acetylthiophen-2-yl)-3-(3-{[(R)-4-ethyl-1,1-dioxide-3,4-dihydro-2H-benzo[b][1,4,5]oxathiazepin-2-yl]methyl}-4-methylphenyl)propanoic acid], the “Metabolic stability*” value was found to be 39%.

Turning to `CC[C@@H]1CN(Cc2cc(C(c3cc(F)c(C(C)=O)s3)C(C)(C)C(=O)O)ccc2C)S(=O)(=O)c2ccccc2O1` (stereo partly drawn) [Compound 11, 3-(5-acetyl-4-fluorothiophen-2-yl)-3-(3-{[(R)-4-ethyl-1,1-dioxide-3,4-dihydro-2H-benzo[b][1,4,5]oxathiazepin-2-yl]methyl}-4-methylphenyl)-2,2-dimethylpropanoic acid], the “Metabolic stability*” value was 27%.

Consider `CC[C@@H]1CN(Cc2cc(C(CC(=O)O)c3cccs3)ccc2C)S(=O)(=O)c2ccccc2O1` (stereo partly drawn) [Compound 17, 3-(3-{[(R)-4-ethyl-1,1-dioxide-3,4-dihydro-2H-benzo[b][1,4,5]oxathiazepin-2-yl]methyl}-4-methylphenyl)-3-(thiophen-2-yl)propanoic acid], for which the “Metabolic stability*” value is reported as 36%.
